Entries after “also recorded” stand apart in the source; their conditions may differ.
Tests used:
U266 cells = test: IL-6-induced proliferation of U266 cells (thymidine incorporation, MTT); type: cell-based, human; settings: curcumin 10 μM, 48 h, serum-free; thymidine incorporation and MTT
Protocol: FIGS. 7A-B show& that IL-6 induces proliferation of human multiple myeloma cells and curcumin inhibits it. […] Cell proliferation assays were performed as described below. Results are shown as mean (±s.d.) of percent [^3H] thymidine incorporation or percent proliferation by MTT of triplicate cultures compared to the untreated control.
The antiproliferative effects of curcumin against different multiple myeloma cell lines were determined by the MTT dye uptake method as described earlier (28). Briefly, the cells (5000/well) were incubated in triplicate in a 96-well plate in the presence or absence of indicated test samples in a final volume of 0.1 ml for 24 h at 37° C. […] The OD at 570 nm was measured using a 96-well multiscanner autoreader (Dynatech MR 5000), with the extraction buffer serving as blank. Percent cell viability cell viability was calculated using the following formula: Percent cell viability=(OD of the experiment samples/OD of the control)×100.
The antiproliferative effects of curcumin were also monitored by the thymidine incorporation method. […] Six hours before the completion of experiment, cells were pulse treated with 0.5 μCi [^3H]thymidine, and the uptake of [^3H]thymidine was monitored using a Matrix-9600 β-counter (Packard Instruments, Downers Grove, Ill.). […]
Whether curcumin suppresses the proliferative effects of IL-6 was determined.

STAT3 phosphorylation = test: Constitutive STAT3 phosphorylation in MDA 1986LN cells (Western blot); type: cell-based, human
Protocol: TU167, MDA 1986LN, TU 686, MDA 686LN and JMAR cells (2×10^6 cells) were lysed and whole cell extracts (30 μg) were resolved on 7.5% SDS-PAGE, electrotransferred to a nitrocellulose membrane and probed for phosphorylated-STAT3 (p-STAT3) and total STAT3 proteins. […] MDA 1986LN cells (2×10^6 cells) were treated with curcumin (50 μM) for indicated durations or with indicated concentrations of curcumin for 1 h and levels of p-STAT3 (upper panels) and STAT3 (lower panels) were examined in whole cell extracts by Western blotting.
MDA 1986LN cells (2×10^6 cells) were treated with curcumin (50 μM) for the indicated durations (upper panels) or treated for 1 h and washed twice with PBS to remove curcumin before re-suspending in fresh medium. Cells were removed at indicated times and lysed to prepare the whole cell extract (lower panels). The whole cell extracts (30 μg) were resolved on 7.5% SDS-PAGE, electrotransferred to a nitrocellulose membrane, probed for the p-STAT3 (upper panels) and striped and reprobed for STAT3 (lower panels).
MDA 1986LN cells (2×10^6 cells) were treated with indicated concentrations of AG490 for 8 h and whole extracts prepared. These whole-cell extracts (30 μg) were resolved on 7.5% SDS-PAGE, electrotransferred to a nitrocellulose membrane, probed for p-STAT3 (upper panel), striped and reprobed for STAT3 (middle panel) and β-actin (lower panel). […] The cells were treated with AG490 (100 μM) for the indicated durations and whole cell extracts prepared and analyzed as mentioned earlier. FIG. 15C compares the effect of curcumin and AG490 on proliferation of MDA 1986LN cells by MTT assay.
Since STAT3 was constitutively phosphorylated in MDA 1986LN cells, the ability of curcumin to inhibit the constitutive STAT3 phosphorylation was examined. MDA 1986LN cells were treated either with curcumin (50 μM) for different durations or with different concentrations of curcumin for 1 h and the p-STAT3 levels and STAT3 levels were determined. Curcumin inhibited the constitutively active STAT3 in a time-(FIG. 11B) and a dose-(FIG. 11C) manner. This curcumin-induced inhibition could be observed as early as 30 min and with a concentration as low as 25 μM.
MDA 1986LN cells were treated with curcumin for indicated times or for 1 h and the cells were washed twice with PBS to remove curcumin. The cells were then cultured in media for various durations and the levels of phosphorylated STAT3 were determined. […] However, the STAT3 levels were unaffected by curcumin treatment.
The concentration and the exposure time for AG490 to inhibit STAT3 phosphorylation in MDA 1986LN cells were determined. These cells were incubated with either different concentrations of AG490 or with 100 μM of AG490 for different durations and the levels of p-STAT3 and STAT3 were assessed.

## COc1cc(/C=C/C(=O)CC(=O)/C=C/c2ccc(O)c(OC)c2)ccc1O [curcumin, diferuloylmethane]
U266 cells
  IL-6-induced proliferation of U266 cells: completely inhibited
STAT3 phosphorylation; 50 μM 1 h then washed
  reversibility of inhibition of STAT3 phosphorylation: removal of curcumin resulted in gradual increase in phosphorylated STAT3
STAT3 phosphorylation; 50 μM curcumin
  earliest time at which inhibition of constitutive STAT3 phosphorylation could be observed: 30 min
STAT3 phosphorylation; 1 h
  lowest concentration at which inhibition of constitutive STAT3 phosphorylation could be observed: 25 µM
STAT3 phosphorylation; curcumin 50 μM, 1 h
  inhibition of constitutive STAT3 phosphorylation: inhibited the STAT3 phosphorylation completely; also recorded: completely inhibit
STAT3 phosphorylation; curcumin treatment
  overall expression / levels of STAT3 protein: did not alter the overall expression of STAT3 protein; also recorded: unaffected
